Test results: PubChem BioAssay (NCI)
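Five concentrations, 48 hours, 96-well plates. TGI: concentration producing complete growth inhibition.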

What was measured:
Assay in all cases: NCI-60 cell line screen, 48 h
786-0 renal = tested on: 786-0 renal
A498 renal = tested on: A498 renal
A549 NSCLC = tested on: A549 NSCLC
ACHN renal = tested on: ACHN renal
CAKI-1 renal = tested on: CAKI-1 renal
CCRF-CEM leukemia = tested on: CCRF-CEM leukemia
COLO 205 colon = tested on: COLO 205 colon
DLD-1 colon = tested on: DLD-1 colon
DMS 114 small cell lung = tested on: DMS 114 small cell lung
DMS 273 small cell lung = tested on: DMS 273 small cell lung
EKVX NSCLC = tested on: EKVX NSCLC
HCC-2998 colon = tested on: HCC-2998 colon
HCT-116 colon = tested on: HCT-116 colon
HOP-18 NSCLC = tested on: HOP-18 NSCLC
HOP-62 NSCLC = tested on: HOP-62 NSCLC
HOP-92 NSCLC = tested on: HOP-92 NSCLC
HT29 colon = tested on: HT29 colon
IGROV1 ovarian = tested on: IGROV1 ovarian
K-562 leukemia = tested on: K-562 leukemia
KM12 colon = tested on: KM12 colon
LOX IMVI melanoma = tested on: LOX IMVI melanoma
LXFL 529 NSCLC = tested on: LXFL 529 NSCLC
M14 melanoma = tested on: M14 melanoma
M19-MEL melanoma = tested on: M19-MEL melanoma
MALME-3M melanoma = tested on: MALME-3M melanoma
MOLT-4 leukemia = tested on: MOLT-4 leukemia
NCI-H226 lung = tested on: NCI-H226 lung
NCI-H23 lung = tested on: NCI-H23 lung
NCI-H460 lung = tested on: NCI-H460 lung
NCI-H522 lung = tested on: NCI-H522 lung
OVCAR-3 ovarian = tested on: OVCAR-3 ovarian
OVCAR-4 ovarian = tested on: OVCAR-4 ovarian
OVCAR-5 ovarian = tested on: OVCAR-5 ovarian
OVCAR-8 ovarian = tested on: OVCAR-8 ovarian
RPMI-8226 leukemia = tested on: RPMI-8226 leukemia
RXF 393 renal = tested on: RXF 393 renal
RXF-631 renal = tested on: RXF-631 renal
SF-268 CNS = tested on: SF-268 CNS
SF-295 CNS = tested on: SF-295 CNS
SF-539 CNS = tested on: SF-539 CNS
SK-MEL-2 melanoma = tested on: SK-MEL-2 melanoma
SK-MEL-28 melanoma = tested on: SK-MEL-28 melanoma
SK-MEL-5 melanoma = tested on: SK-MEL-5 melanoma
SK-OV-3 ovarian = tested on: SK-OV-3 ovarian
SN12C renal = tested on: SN12C renal
SNB-19 CNS = tested on: SNB-19 CNS
SNB-75 CNS = tested on: SNB-75 CNS
SNB-78 CNS = tested on: SNB-78 CNS
SR leukemia = tested on: SR leukemia
SW-620 colon = tested on: SW-620 colon
TK-10 renal = tested on: TK-10 renal
U251 CNS = tested on: U251 CNS
UACC-257 melanoma = tested on: UACC-257 melanoma
UACC-62 melanoma = tested on: UACC-62 melanoma
UO-31 renal = tested on: UO-31 renal
XF 498 CNS = tested on: XF 498 CNS
HCT-15 colon = tested on: HCT-15 colon
HL-60(TB) leukemia = tested on: HL-60(TB) leukemia
KM20L2 colon = tested on: KM20L2 colon

With Cn1cnc([N+](=O)[O-])c1Sc1n[nH]c(-c2ccc(Cl)cc2)n1 the TGI (786-0 renal) was 51.5 µM, the TGI (A498 renal) was 56.1 µM and the TGI (A549 NSCLC) was 77.8 µM. The TGI (ACHN renal) was 41.7 µM, the TGI (CAKI-1 renal) was 78.8 µM and the TGI (CCRF-CEM leukemia) was 39.6 µM. It also gave a TGI (COLO 205 colon) of 30.9 µM, a TGI (DLD-1 colon) of 52.5 µM and a TGI (DMS 114 small cell lung) of 49.7 µM. The TGI (DMS 273 small cell lung) was 37.3 µM, the TGI (EKVX NSCLC) was 79.9 µM and the TGI (HCC-2998 colon) was 40.6 µM. The TGI (HCT-116 colon) was 58.1 µM, the TGI (HOP-18 NSCLC) was 8.3 µM and the TGI (HOP-62 NSCLC) was 54.9 µM. The TGI (HOP-92 NSCLC) was 37.6 µM, the TGI (HT29 colon) was 42.5 µM and the TGI (IGROV1 ovarian) was 62.3 µM. For the same molecule, the TGI (K-562 leukemia) was 51.3 µM, the TGI (KM12 colon) was 39.2 µM and the TGI (LOX IMVI melanoma) was 30.1 µM. For the same molecule, the TGI (LXFL 529 NSCLC) was 36.7 µM, the TGI (M14 melanoma) was 33.5 µM and the TGI (M19-MEL melanoma) was 47.7 µM. The TGI (MALME-3M melanoma) was 26.4 µM, the TGI (MOLT-4 leukemia) was 38.1 µM and the TGI (NCI-H226 lung) was 34.5 µM. It also gave a TGI (NCI-H23 lung) of 37.9 µM, a TGI (NCI-H460 lung) of 53.6 µM and a TGI (NCI-H522 lung) of 24.9 µM. It also gave a TGI (OVCAR-3 ovarian) of 40.4 µM, a TGI (OVCAR-4 ovarian) of 57.4 µM and a TGI (OVCAR-5 ovarian) of 63.6 µM. It also gave a TGI (OVCAR-8 ovarian) of 32.4 µM, a TGI (RPMI-8226 leukemia) of 87.7 µM and a TGI (RXF 393 renal) of 26.5 µM. For the same molecule, the TGI (RXF-631 renal) was 59 µM, the TGI (SF-268 CNS) was 50.7 µM and the TGI (SF-295 CNS) was 58.8 µM. For the same molecule, the TGI (SF-539 CNS) was 29.9 µM, the TGI (SK-MEL-2 melanoma) was 29.9 µM and the TGI (SK-MEL-28 melanoma) was 30.3 µM. It also gave a TGI (SK-MEL-5 melanoma) of 29.8 µM, a TGI (SK-OV-3 ovarian) of 95.7 µM and a TGI (SN12C renal) of 31.6 µM. The TGI (SNB-19 CNS) was 51 µM, the TGI (SNB-75 CNS) was 50.7 µM and the TGI (SNB-78 CNS) was 70.7 µM. For the same molecule, the TGI (SR leukemia) was 42 µM, the TGI (SW-620 colon) was 78 µM and the TGI (TK-10 renal) was 43.8 µM. For the same molecule, the TGI (U251 CNS) was 48.9 µM, the TGI (UACC-257 melanoma) was 39.6 µM and the TGI (UACC-62 melanoma) was 28.4 µM. For the same molecule, the TGI (UO-31 renal) was 60.5 µM and the TGI (XF 498 CNS) was 27.6 µM.
For CC(=O)OCC12CC(CC1OC(C)=O)c1ccccc12 (stereo not given), the TGI (786-0 renal) was over 100 µM, the TGI (A498 renal) was over 100 µM and the TGI (A549 NSCLC) was over 100 µM. The TGI (ACHN renal) was over 100 µM, the TGI (CAKI-1 renal) was over 100 µM and the TGI (CCRF-CEM leukemia) was over 100 µM. It also gave a TGI (COLO 205 colon) of over 100 µM, a TGI (DMS 114 small cell lung) of over 100 µM and a TGI (DMS 273 small cell lung) of over 100 µM. It also gave a TGI (HCC-2998 colon) of over 100 µM, a TGI (HCT-116 colon) of over 100 µM and a TGI (HCT-15 colon) of over 100 µM. For the same molecule, the TGI (HL-60(TB) leukemia) was over 100 µM, the TGI (HOP-18 NSCLC) was over 100 µM and the TGI (HOP-62 NSCLC) was over 100 µM. It also gave a TGI (HOP-92 NSCLC) of over 100 µM, a TGI (HT29 colon) of over 100 µM and a TGI (IGROV1 ovarian) of over 100 µM. The TGI (K-562 leukemia) was over 100 µM, the TGI (KM20L2 colon) was over 100 µM and the TGI (LOX IMVI melanoma) was over 100 µM. For the same molecule, the TGI (LXFL 529 NSCLC) was over 100 µM, the TGI (M14 melanoma) was over 100 µM and the TGI (M19-MEL melanoma) was over 100 µM. For the same molecule, the TGI (MALME-3M melanoma) was over 100 µM, the TGI (MOLT-4 leukemia) was over 100 µM and the TGI (NCI-H226 lung) was over 100 µM. It also gave a TGI (NCI-H23 lung) of over 100 µM, a TGI (NCI-H460 lung) of over 100 µM and a TGI (OVCAR-3 ovarian) of over 100 µM. For the same molecule, the TGI (OVCAR-4 ovarian) was over 100 µM, the TGI (OVCAR-5 ovarian) was over 100 µM and the TGI (OVCAR-8 ovarian) was over 100 µM. It also gave a TGI (RPMI-8226 leukemia) of over 100 µM, a TGI (RXF-631 renal) of over 100 µM and a TGI (SF-268 CNS) of over 100 µM. The TGI (SF-295 CNS) was over 100 µM, the TGI (SK-MEL-28 melanoma) was over 100 µM and the TGI (SK-MEL-5 melanoma) was over 100 µM. It also gave a TGI (SK-OV-3 ovarian) of over 100 µM, a TGI (SN12C renal) of over 100 µM and a TGI (SNB-19 CNS) of over 100 µM. It also gave a TGI (SR leukemia) of over 100 µM, a TGI (SW-620 colon) of over 100 µM and a TGI (TK-10 renal) of over 100 µM. The TGI (U251 CNS) was over 100 µM, the TGI (UACC-257 melanoma) was over 100 µM and the TGI (UACC-62 melanoma) was over 100 µM. For the same molecule, the TGI (UO-31 renal) was over 100 µM.
